Measured values from patent US20050222173A1, “Triazolopyrimidines” (priority 2002, published 2005).

Assay: logP determination by HPLC (EEC Directive 79/831 Annex V. A8)
Details: HPLC, gradient method, acetonitrile/0.1% aqueous phosphoric acid
`CC(Nc1c(-c2c(F)cc(F)cc2F)c(Cl)nc2nc(N(C)C)nn12)C(F)(F)F` (stereo not shown) [Example 3] gave a log.P of 3.52.
In the case of `CC(C)NNc1c(-c2c(F)cc(F)cc2F)c(Cl)nc2nc(N(C)C)nn12` [Example 4], the log.P is reported as 3.33.
`Fc1cc(F)c(-c2c(Cl)nc3nc(Cl)nn3c2N2CCOCC2)c(F)c1` [Example 5] gave a log.P of 2.99.
`CC1CN(c2c(-c3c(F)cc(F)cc3F)c(Cl)nc3nc(Cl)nn23)CC(C)O1` (stereo not shown) [Example 6] gave a log.P of 3.72.
With `CCNc1c(-c2c(F)cc(F)cc2F)c(Cl)nc2nc(Cl)nn12` [Example 7] the log.P was 3.07.
`Fc1cc(F)c(-c2c(Cl)nc3nc(Cl)nn3c2N2CCCC2)c(F)c1` [Example 8] showed a log.P of 3.46.
With `CCN(CC)c1c(-c2c(F)cc(F)cc2F)c(Cl)nc2nc(Cl)nn12` [Example 9] the log.P was 3.85.
Work on `CCCNc1c(-c2c(F)cc(F)cc2F)c(Cl)nc2nc(Cl)nn12` [Example 10] yielded a log.P of 3.37.
With `Fc1cc(F)c(-c2c(Cl)nc3nc(Cl)nn3c2NC2CCCC2)c(F)c1` [Example 11] the log.P was 3.9.
`COCCNc1c(-c2c(F)cc(F)cc2F)c(Cl)nc2nc(Cl)nn12` [Example 12] gave a log.P of 2.91.
`CNc1c(-c2c(F)cc(F)cc2F)c(Cl)nc2nc(Cl)nn12` [Example 13] showed a log.P of 2.67.
For `Fc1cc(F)c(-c2c(Cl)nc3nc(Cl)nn3c2NC2CC2)c(F)c1` [Example 14], the log.P was 3.1.
Work on `Fc1cc(F)c(-c2c(Cl)nc3nc(Cl)nn3c2N2CCSCC2)c(F)c1` [Example 15] yielded a log.P of 3.68.
`Fc1cc(F)c(-c2c(Cl)nc3nc(Cl)nn3c2NN2CCOCC2)c(F)c1` [Example 16] gave a log.P of 2.74.
In the case of `CC(NNc1c(-c2ccccc2Cl)c(Cl)nc2nc(Cl)nn12)C1CC1` (stereo not shown) [Example 17], the log.P is reported as 3.55.
Work on `FC(F)C(F)(F)CNNc1c(-c2ccccc2Cl)c(Cl)nc2nc(Cl)nn12` [Example 18] yielded a log.P of 3.59.
In the case of `Clc1nc2nc(Cl)c(-c3ccccc3Cl)c(NCC3CC3)n2n1` [Example 19], the log.P is reported as 3.55.
In the case of `OCCNc1c(-c2ccccc2Cl)c(Cl)nc2nc(Cl)nn12` [Example 21], the log.P is reported as 2.18.
For `CC(C)(C)Nc1c(-c2ccccc2Cl)c(Cl)nc2nc(Cl)nn12` [Example 22], the log.P was 3.99.
`CC(Nc1c(-c2c(F)cc(F)cc2F)c(Cl)nc2nc(Cl)nn12)C1CCCCC1` (stereo not shown) [Example 23] gave a log.P of 4.87.
With `OCCNc1c(-c2c(F)cc(F)cc2F)c(Cl)nc2nc(Cl)nn12` [Example 24] the log.P was 2.23.
Work on `CC(C)(C)Nc1c(-c2c(F)cc(F)cc2F)c(Cl)nc2nc(Cl)nn12` [Example 25] yielded a log.P of 3.9.
With `CN(C)c1c(-c2ccccc2Cl)c(Cl)nc2nc(Cl)nn12` [Example 26] the log.P was 3.18.
For `Clc1nc2nc(Cl)c(-c3ccccc3Cl)c(N3CCOCC3)n2n1` [Example 27], the log.P was 3.03.
`CC1CN(c2c(-c3ccccc3Cl)c(Cl)nc3nc(Cl)nn23)CC(C)O1` (stereo not shown) [Example 28] gave a log.P of 3.81.
With `CCNc1c(-c2ccccc2Cl)c(Cl)nc2nc(Cl)nn12` [Example 29] the log.P was 3.07.
`Clc1nc2nc(Cl)c(-c3ccccc3Cl)c(N3CCCC3)n2n1` [Example 30] showed a log.P of 3.59.
For `CCN(CC)c1c(-c2ccccc2Cl)c(Cl)nc2nc(Cl)nn12` [Example 31], the log.P was 3.99.
Work on `Clc1nc2nc(Cl)c(-c3ccccc3Cl)c(N3CCCCC3)n2n1` [Example 32] yielded a log.P of 4.18.
With `CCCNc1c(-c2ccccc2Cl)c(Cl)nc2nc(Cl)nn12` [Example 33] the log.P was 3.46.
In the case of `Clc1nc2nc(Cl)c(-c3ccccc3Cl)c(NC3CCCC3)n2n1` [Example 34], the log.P is reported as 4.03.
`COCCNc1c(-c2ccccc2Cl)c(Cl)nc2nc(Cl)nn12` [Example 35] gave a log.P of 2.91.
`CNc1c(-c2ccccc2Cl)c(Cl)nc2nc(Cl)nn12` [Example 36] gave a log.P of 2.7.
Work on `Clc1nc2nc(Cl)c(-c3ccccc3Cl)c(NC3CC3)n2n1` [Example 37] yielded a log.P of 3.18.
For `Clc1nc2nc(Cl)c(-c3ccccc3Cl)c(N3CCSCC3)n2n1` [Example 38], the log.P was 3.76.
In the case of `CN(C)Nc1c(-c2ccccc2Cl)c(Cl)nc2nc(Cl)nn12` [Example 40], the log.P is reported as 3.18.
In the case of `COC(=O)N(C)Nc1c(-c2ccccc2Cl)c(Cl)nc2nc(Cl)nn12` [Example 41], the log.P is reported as 2.55.
`Clc1nc2nc(Cl)c(-c3ccccc3Cl)c(NC3CCCCC3)n2n1` [Example 42] gave a log.P of 4.32.
`CC(C)Nc1c(-c2c(F)cc(F)cc2F)c(Cl)nc2nc(Br)nn12` [Example 43] showed a log.P of 3.4.
For `CC(C)Nc1c(-c2ccccc2Cl)c(Cl)nc2nc(Br)nn12` [Example 45], the log.P was 3.45.
For `Fc1cc(F)c(-c2c(Cl)nc3nc(Cl)nn3c2N2CCC(C(F)(F)F)CC2)c(F)c1` [Example 46], the log.P was 5.
Molecule `CC(C)Nc1c(-c2c(F)cc(F)cc2F)c(Cl)nc2nc(Cl)nn12` [Example 47] has a log.P of 3.36.
`CC(C)CN(N)c1c(-c2c(F)cc(F)cc2F)c(Cl)nc2nc(Cl)nn12` [Example 48] gave a log.P of 3.67.
`Fc1cc(F)c(-c2c(Cl)nc3nc(Br)nn3c2N2CCOCC2)c(F)c1` [Example 49] gave a log.P of 3.03.
In the case of `CC1CN(c2c(-c3c(F)cc(F)cc3F)c(Cl)nc3nc(Br)nn23)CC(C)O1` (stereo not shown) [Example 50], the log.P is reported as 3.72.
Work on `CCNc1c(-c2c(F)cc(F)cc2F)c(Cl)nc2nc(Br)nn12` [Example 51] yielded a log.P of 3.07.
`Fc1cc(F)c(-c2c(Cl)nc3nc(Br)nn3c2N2CCCC2)c(F)c1` [Example 52] showed a log.P of 3.5.
`CCN(CC)c1c(-c2c(F)cc(F)cc2F)c(Cl)nc2nc(Br)nn12` [Example 53] gave a log.P of 3.9.
In the case of `CCCNc1c(-c2c(F)cc(F)cc2F)c(Cl)nc2nc(Br)nn12` [Example 54], the log.P is reported as 3.41.
For `COCCNc1c(-c2c(F)cc(F)cc2F)c(Cl)nc2nc(Br)nn12` [Example 55], the log.P was 2.99.
`Fc1cc(F)c(-c2c(Cl)nc3nc(Br)nn3c2NC2CC2)c(F)c1` [Example 56] gave a log.P of 3.14.
With `Fc1cc(F)c(-c2c(Cl)nc3nc(Br)nn3c2NN2CCOCC2)c(F)c1` [Example 57] the log.P was 2.77.
`CC(C)(C)Nc1c(-c2c(F)cc(F)cc2F)c(Cl)nc2nc(Br)nn12` [Example 58] gave a log.P of 3.9.
Molecule `CN(C)c1c(-c2c(F)cc(F)cc2F)c(Cl)nc2nc(Br)nn12` [Example 59] has a log.P of 3.14.
In the case of `Fc1cc(F)c(-c2c(Cl)nc3nc(Br)nn3c2NC2CCCC2)c(F)c1` [Example 60], the log.P is reported as 3.94.
With `Fc1cc(F)c(-c2c(Cl)nc3nc(Br)nn3c2N2CCSCC2)c(F)c1` [Example 61] the log.P was 3.72.
`Fc1cc(F)c(-c2c(Cl)nc3nc(Br)nn3c2NCC2CC2)c(F)c1` [Example 62] showed a log.P of 3.5.
In the case of `CCC(C)Nc1c(-c2c(F)cc(F)cc2F)c(Cl)nc2nc(Br)nn12` (stereo not shown) [Example 64], the log.P is reported as 3.76.
For `CC(C)CN(N)c1c(-c2c(F)cc(F)cc2F)c(Cl)nc2nc(Br)nn12` [Example 65], the log.P was 3.67.
Work on `CC(C)(Nc1c(-c2c(F)cc(F)cc2F)c(Cl)nc2nc(Cl)nn12)C(F)(F)F` [Example 66] yielded a log.P of 3.28.
Molecule `Fc1cc(F)c(-c2c(Cl)nc3nc(Cl)nn3c2N2CCCCC2C(F)(F)F)c(F)c1` (stereo not shown) [Example 67] has a log.P of 3.28.
Molecule `CON(C)c1c(-c2c(F)cc(F)cc2F)c(Cl)nc2nc(Br)nn12` [Example 68] has a log.P of 3.39.
Work on `CCC(C)CNc1c(-c2c(F)cc(F)cc2F)c(Cl)nc2nc(Cl)nn12` (stereo not shown) [Example 69] yielded a log.P of 4.04.
For `CCC(C)Nc1c(-c2ccccc2Cl)c(Cl)nc2nc(Cl)nn12` (stereo not shown) [Example 70], the log.P was 3.79.
